The values below come from patent US20240254087A1, “SELECTIVE, PARTIAL, AND ARRESTIN-BIASED 5-HT2A AGONISTS WITH UTILITY IN VARIOUS DISORDERS” (Saint Joseph's University, priority 2021, published 2024).

Entries after “also recorded” stand apart in the source; their conditions may differ.

In experiment [1] the target is T1, 5-HT2C (Homo sapiens, UniProt P28335).
T1 sequence (P28335 33-458): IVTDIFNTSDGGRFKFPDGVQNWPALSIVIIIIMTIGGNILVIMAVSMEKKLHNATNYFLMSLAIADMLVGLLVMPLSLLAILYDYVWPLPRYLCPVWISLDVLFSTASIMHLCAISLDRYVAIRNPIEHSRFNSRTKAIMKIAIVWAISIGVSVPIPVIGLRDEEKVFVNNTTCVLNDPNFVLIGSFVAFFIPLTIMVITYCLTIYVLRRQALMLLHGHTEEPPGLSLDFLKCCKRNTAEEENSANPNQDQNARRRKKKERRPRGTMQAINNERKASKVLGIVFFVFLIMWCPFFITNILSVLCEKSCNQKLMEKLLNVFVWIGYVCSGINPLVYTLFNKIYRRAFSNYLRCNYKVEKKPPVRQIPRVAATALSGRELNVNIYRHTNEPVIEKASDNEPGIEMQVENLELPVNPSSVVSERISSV
The experiment in a line: BRET Gq dissociation, 5-HT2C. It counts as cell-based. On the set-up: expressed in transfected cells; host or cells: HEK293T, transient. The following applies: for Emax: read-out: 5-HT2C Gq Dissociation (BRET) EMAX ± SEM (%5-HT).

Experiment [2] relates to male C57BL/6J mice. The experiment in a line: Blockade of agonist-induced HTR by pretreatment. It counts as in vivo, mouse. The following applies: pretreatment of mice with test compound. On the procedure:
Vehicle or the NMDA receptor antagonist PCP (5 mg/kg) was injected IP 10 min after SC administration of vehicle or 25N-NB1-Nap (16), and then the mice were placed in the test chambers 10 min later for a 60-min assessment of locomotor activity. (C). […] Mice were treated with vehicle or M100907 (0.03 mg/kg SC) 10 min prior to vehicle or PCP (5 mg/kg IP): animals were placed in the test chambers 10 min after treatment with PCP.
Male C57BL/6J mice (6-8 weeks old) from Jackson Labs (Bar Harbor, ME, USA) were used for the behavioral experiments. The mice were housed on a reversed light-dark cycle (lights on at 1900 h, off at 0700 h) in an AAAC-approved vivarium at the University of California San Diego. Mice were housed up to four per cage in a climate-controlled room and with food and water provided ad libitum except during behavioral testing. Testing was performed between 1000 and 1800 h (during the dark phase of the light-dark cycle). The studies were conducted in accordance with National Institutes Health (NIH) guidelines and were approved by the University of California San Diego Institutional Animal Care and Use Committee.
The mice were allowed to recover from the magnet implantation surgeries for at least 1 week prior to behavioral testing. HTR experiments were conducted in a well-lit room, and the mice were allowed to habituate to the room for at least 1 h prior to testing. Head twitches was assessed in a 12-cm diameter glass cylinder surrounded by a magnetometer coil. Coil voltage was low-pass filtered (2 kHz), amplified, and digitized (20-kHz sampling rate) using a Powerlab/8SP with LabChart v 7.3.2 (ADInstruments, Colorado Springs, CO, USA). […] HTR counts were analyzed using one-way ANOVAs. Dunnett's test was used for post hoc comparisons.

The target of experiment [3] is T2, 5-HT2A (Homo sapiens, UniProt P28223). The experiment can be described thus: NanoLuc internalization assay. It counts as cell-based. The following applies: 60 min.
T2 sequence (P28223 whole entry): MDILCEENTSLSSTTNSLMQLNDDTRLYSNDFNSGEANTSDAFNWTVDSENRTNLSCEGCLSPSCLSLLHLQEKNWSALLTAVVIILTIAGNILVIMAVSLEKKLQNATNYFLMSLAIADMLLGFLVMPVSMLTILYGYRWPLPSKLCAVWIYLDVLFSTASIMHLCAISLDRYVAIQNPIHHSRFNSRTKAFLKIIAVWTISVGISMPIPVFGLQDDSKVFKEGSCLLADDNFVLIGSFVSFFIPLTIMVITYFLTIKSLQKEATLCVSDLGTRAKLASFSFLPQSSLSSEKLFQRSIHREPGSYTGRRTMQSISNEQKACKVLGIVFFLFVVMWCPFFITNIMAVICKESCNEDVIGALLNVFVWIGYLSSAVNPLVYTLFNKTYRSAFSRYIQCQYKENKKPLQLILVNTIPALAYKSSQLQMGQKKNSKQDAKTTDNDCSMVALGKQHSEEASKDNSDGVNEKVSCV
Experiment [4] addresses T2, 5-HT2A. The experiment in a line: Antagonism of 5-HT-induced Gq signaling (BRET). It is filed as cell-based. On the set-up: expressed in transfected cells; host or cells: HEK293T, transient. (In general: BRET reads energy transfer from a luciferase to a nearby fluorophore.)

As to `COc1cc([N+](=O)[O-])c(OC)cc1CCNCc1ccccc1[N+](=O)[O-]` [25N-NBNO2 (15), [2-(2,5-dimethoxy-4-nitrophenyl)ethyl][(2-nitrophenyl)methyl]amine], in experiment [1], it took 148 nM to reach a half-maximal effect (EC50) and the Emax (as a rule, the maximal effect, on the per cent scale that the assay sets) was 61.3 ± 4.4%.
`COc1cc([N+](=O)[O-])c(OC)cc1CCNCc1cccc(C)c1O` [25N-NB-2-OH-3-Me (18), 2-({[2-(2,5-dimethoxy-4-nitrophenyl)ethyl]amino}methyl)-6-methylphenol]: the “Blockade of the HTR induced by DOI” value in experiment [2] is “blocked the HTR; also recorded: can block the HTR”. Also, in experiment [1], the EC50 (commonly the midpoint of the concentration-response curve) was 2.14 nM and the Emax was found to be 45.8 ± 2.4%.
On to `COc1cc([N+](=O)[O-])c(OC)cc1CCNCc1ccccc1` [25N-NB (2), Benzyl[2-(2,5-dimethoxy-4-nitrophenyl)ethyl]amine], for which, in experiment [1], the response was half-maximal at 8.51 nM (EC50) and the maximal response (Emax) is 89.4 ± 2.3%.
In the case of `COc1cc([N+](=O)[O-])c(OC)cc1CCN` [2C-N (1), 2-(2,5-dimethoxy-4-nitrophenyl)ethan-1-amine, reference compound], in experiment [1], the EC50 was 12.6 nM and the Emax stood at 78.4 ± 2.5%.
Consider `COc1cc([N+](=O)[O-])c(OC)cc1CCNCc1ccccc1-c1ccccc1` [25N-NBPh (17), ({[1,1′-biphenyl]-2-yl}methyl)[2-(2,5-dimethoxy-4-nitrophenyl)ethyl]amine], for which the “Blockade of the HTR induced by DOI” value in experiment [2] is “blocked the HTR”. Also, the “Internalization of 5-HT2A receptors” value in experiment [3] was “potent and strong internalization”. In addition, in experiment [1], a half-maximal effect (EC50) was put at 646 nM and the Emax came out at 96.9 ± 10%. For the same compound, the “Antagonism of 5-HT-induced 5-HT2A-mediated Gq signaling” value in experiment [4] is listed as “antagonized”.
Turning to `COc1cc([N+](=O)[O-])c(OC)cc1CCNCc1cccc2ccccc12` [25N-N-1-Nap (16), [2-(2,5-dimethoxy-4-nitrophenyl)ethyl][(naphthalen-1-yl)methyl]amine], in experiment [2], the “Blockade of the HTR induced by DOI” value is “blocked the HTR”. The “Internalization of 5-HT2A receptors” value in experiment [3] is “potent and strong internalization”. In experiment [1], the EC50 is 18.6 nM and the Emax worked out at 34.1 ± 4.4%. Also, in experiment [4], the “Antagonism of 5-HT-induced 5-HT2A-mediated Gq signaling” value is on record as “antagonized”.
As for `COc1cc([N+](=O)[O-])c(OC)cc1CCNCc1ccccc1OC` [25N-NBOMe (4), [2-(2,5-dimethoxy-4-nitrophenyl)ethyl] [(2-methoxyphenyl)methyl]amine], the “Internalization of 5-HT2A receptors” value in experiment [3] was “strong internalization”. Further, in experiment [1], the EC50 is 0.302 nM and the Emax is 112 ± 2.8%.
On to `COc1cc([N+](=O)[O-])c(OC)cc1CCNCc1ccccc1I` [25N-NBI (10)], for which, in experiment [1], the EC50 was 87.1 nM and the Emax stood at 71.5 ± 2.2%.
